Tests used:
Assay in all cases: relative viability (nuclei count vs DMSO), 5 days (fraction); higher = more cells survive
Olaparib + Pictilisib = compound: O=C(c1cc(Cc2n[nH]c(=O)c3ccccc23)ccc1F)N1CCN(C(=O)C2CC2)CC1 [Olaparib] + CS(=O)(=O)N1CCN(Cc2cc3nc(-c4cccc5[nH]ncc45)nc(N4CCOCC4)c3s2)CC1 [Pictilisib] (partner 1 µM)
Method in brief: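 A single step with final 0.05% Triton X-100, 1% formaldehyde and 1 ug/ml Hoechst fixed the cells and stained nuclei 5 days after treatment. Lung cancer cell lines in 1536-well plates had been treated by pin tool the day after seeding with one drug alone or a fixed anchor-drug dose plus five library-drug doses (not always all listed) in √10 steps, and nuclei were counted on 4× images. Relative viability is the ratio of nuclei in treated wells to nuclei in vehicle wells, taken as the median of duplicate plates.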

Crizotinib = compound: C[C@@H](Oc1cc(-c2cnn(C3CCNCC3)c2)cnc1N)c1c(Cl)ccc(F)c1Cl [Crizotinib]
Method in brief: (§1)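 Hoechst staining, done together with fixation and permeabilisation, marked nuclei for 4× imaging and MetaXpress counting. This followed 5 days without medium change after lung cancer cell lines, kept overnight at 37 °C in 1536-well plates, were pinned with five library-drug doses (not always all listed) spaced by √10 on vehicle-anchored plates. Viability is the ratio of treated-well to vehicle-well nuclei, expressed as a median across plates. Plates passed only at control CV below 25% with at least one doubling.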

Carfilzomib = compound: CC(C)C[C@H](NC(=O)[C@H](CCc1ccccc1)NC(=O)CN1CCOCC1)C(=O)N[C@@H](Cc1ccccc1)C(=O)N[C@@H](CC(C)C)C(=O)[C@@]1(C)CO1 [Carfilzomib]
Method in brief: as §1

Olaparib = compound: O=C(c1cc(Cc2n[nH]c(=O)c3ccccc23)ccc1F)N1CCN(C(=O)C2CC2)CC1 [Olaparib]
Method in brief: as §1

Cell Line | relative viability (Olaparib + Pictilisib; first compound 0.08 µM) | relative viability (Olaparib + Pictilisib; first compound 0.253 µM) | relative viability (Olaparib + Pictilisib; first compound 2.53 µM) | relative viability (Olaparib + Pictilisib; first compound 8 µM) | relative viability (Crizotinib; 0.01 µM) | relative viability (Crizotinib; 0.03162 µM) | relative viability (Crizotinib; 0.1 µM) | relative viability (Crizotinib; 0.3162 µM) | relative viability (Crizotinib; 1 µM) | relative viability (Crizotinib; 1 µM, anchor plate) | relative viability (Carfilzomib; 0.001 µM) | relative viability (Carfilzomib; 0.003162 µM) | relative viability (Carfilzomib; 0.01 µM) | relative viability (Carfilzomib; 0.03162 µM) | relative viability (Carfilzomib; 0.1 µM) | relative viability (Olaparib; 0.08 µM) | relative viability (Olaparib; 0.253 µM) | relative viability (Olaparib; 2.53 µM) | relative viability (Olaparib; 8 µM) | relative viability (Olaparib; 8 µM, anchor plate)
NCI-H2087 | 0.967 | 0.797 | 0.8 | 0.508 | 0.871 | 0.982 | 1.22 | 0.788 | 1.03 | 0.811 | 0.989 | 1.06 | 0.586 | 0.0747 | 0.0676 | 1.31 | 0.929 | 0.944 | 0.662 | 0.601
NCI-H2126 | 0.544 | 0.504 | 0.513 | 0.556 | 0.934 | 1.02 | 0.959 | 0.914 | 0.993 | – | 0.994 | 1.07 | 1.03 | 0.93 | 0.568 | 1.07 | 0.984 | 0.982 | 1.01 | 0.907
NCI-H2170 | 0.346 | 0.277 | 0.305 | 0.332 | – | 0.985 | 0.977 | 0.928 | 1.01 | 1.2 | 0.931 | 0.99 | 1.07 | 0.969 | 0.443 | 0.973 | 0.875 | 0.971 | 0.915 | 0.599
NCI-H2228 | 0.429 | 0.418 | 0.292 | 0.336 | 1.16 | 1.04 | 1 | 0.679 | 0.585 | 0.482 | 0.975 | 1.15 | 0.905 | 0.157 | 0.101 | 1.12 | 0.845 | 0.777 | 0.609 | 0.719
NCI-H2347 | 1.28 | 0.557 | 0.683 | 0.547 | 0.965 | 0.974 | 1.07 | 0.973 | 1.06 | 0.73 | 0.971 | 1.08 | 1.03 | 0.511 | 0.393 | 1.09 | 0.877 | 0.877 | 0.765 | 0.583
NCI-H2405 | 0.524 | 0.406 | 0.426 | 0.469 | 1.01 | 0.977 | 0.909 | 0.949 | 0.973 | 0.789 | 0.704 | 1.15 | 1.1 | 0.8 | 0.277 | 1.09 | 0.884 | 0.945 | 1.02 | 0.853
NCI-H3122 | 0.629 | 0.532 | 0.587 | 0.627 | 0.944 | 0.988 | 1.02 | 0.864 | 0.798 | 0.275 | 1.03 | 1.05 | 1.03 | 0.978 | 0.455 | 1 | 0.966 | 0.946 | 0.865 | 0.607
PC-3 [JPC-3] | 0.857 | 0.592 | 0.712 | 0.673 | 0.978 | 1.04 | 1.15 | 0.992 | 0.961 | 0.97 | 1 | 1.07 | 1.09 | 0.896 | 0.39 | 1.06 | 0.907 | 1.12 | 0.989 | 1.1
PC-14 | 0.872 | 0.59 | 0.601 | 0.466 | 0.92 | 1.01 | 1.02 | 0.963 | 0.986 | – | 1.03 | 1.13 | 1.06 | 0.29 | 0.0816 | 1.14 | 0.849 | 0.954 | 0.682 | 0.285
RERF-LC-KJ | 0.491 | 0.522 | 0.648 | 0.526 | 0.944 | 1.06 | 1.02 | 0.927 | 1.05 | 0.819 | 0.923 | 1.03 | 1.05 | 0.683 | 0.259 | 1.06 | 0.943 | 0.947 | 0.971 | 0.89
SK-LU-1 | 0.608 | 0.569 | 0.602 | 0.353 | 1.06 | 1.07 | 1.02 | 1.05 | 1.08 | 0.852 | 0.968 | 1.22 | 1 | 0.249 | 0.187 | 1.13 | 0.906 | 0.926 | 0.735 | 0.44
SK-MES-1 | 0.399 | 0.297 | 0.355 | 0.328 | 0.951 | 0.999 | 1.02 | 0.97 | 0.967 | 0.991 | 0.987 | 1.05 | 1.06 | 0.782 | 0.186 | 1.09 | 0.892 | 0.96 | 0.776 | 0.731
SW 1573 | 0.526 | – | 0.508 | 0.381 | 0.941 | 0.999 | 0.917 | 0.885 | 0.974 | 0.793 | 0.957 | 1.18 | 0.77 | 0.173 | 0.0655 | 1.1 | 0.896 | 0.825 | 0.633 | 0.512
UMC-11 | 0.909 | 0.687 | 0.658 | 0.307 | 0.898 | 0.972 | 0.91 | 0.636 | 1.01 | 0.606 | 0.947 | 1.03 | 0.987 | 0.854 | 0.578 | 1.03 | 0.894 | 0.758 | 0.492 | 0.373

Source: the supplement of paper PMC10307832
